Values quoted from earlier work, collected in PubChem BioAssay AID1259409 (Chemical Carcinogenesis Research Information System (CCRIS), 2018).

Tested on: rodent chemically induced tumor inhibition, incidence and multiplicity
Experiment: CCRIS tumor inhibitor studies
Settings: Route [Inhibitor]: ORAL, Species: RAT

C=CC1=C(C)C2=CC3=NC(=C(CC(=O)O)C4=NC(=C(C)C4=C(O)O)C=c4[nH]c(c(C)c4CC)=CC1=N2)C(CCC(=O)O)C3C (stereo not given)
tumour outcome (control, treated, inhibition, significance) (Carcinogen: 1,2-DIMETHYLHYDRAZINE [540-73-8], Dose [Inhibitor]: 0, 0.001% (W/V BASED ON TOTAL CHLORINS) IN DRINKING WATER BEGINNING 1 WK POST CARCINOGEN TREATMENT FOR THE DURATION STUD, Strain/Sex: F344/MALE, Target Tissue: Type of Lesion: COLON: TUMOR, Dose [Carcinogen]: 20 MG/KG FOR FIRST 5 WK (STUDY DURATION: 52 WK), Promoter: NONE): 20/23 (87%), 18/20 (90%), -3.4%, not significant
tumour outcome (control, treated, inhibition, significance) (Carcinogen: 1,2-DIMETHYLHYDRAZINE [540-73-8], Dose [Inhibitor]: 0, 0.001% (W/V BASED ON TOTAL CHLORINS) IN DRINKING WATER BEGINNING 1 WK POST CARCINOGEN TREATMENT FOR THE DURATION STUD, Strain/Sex: F344/MALE, Target Tissue: Type of Lesion: SMALL INTESTINE: TUMOR, Dose [Carcinogen]: 20 MG/KG BW/WK FOR FIRST 5 WK (STUDY DURATION: 52 WK), Promoter: NONE): 12/23 (52%), 6/20 (30%), 42%, not significant
tumour outcome (control, treated, inhibition, significance) (Carcinogen: 1,2-DIMETHYLHYDRAZINE [540-73-8], Dose [Inhibitor]: 0, 0.01% (W/V BASED ON TOTAL CHLORINS) IN DRINKING WATER BEGINNING 1 WK POST CARCINOGEN TREATMENT FOR THE DURATION STUDY, Strain/Sex: F344/MALE, Target Tissue: Type of Lesion: SMALL INTESTINE: TUMOR, Dose [Carcinogen]: 20 MG/KG BW/WK FOR FIRST 5 WK (STUDY DURATION: 52 WK), Promoter: NONE): 12/23 (52%), 11/20 (55%), -6%, not significant
tumour outcome (control, treated, inhibition, significance) (Carcinogen: 1,2-DIMETHYLHYDRAZINE [540-73-8], Dose [Inhibitor]: 0, 0.1% (W/V BASED ON TOTAL CHLORINS) IN DRINKING WATER BEGINNING 1 WK POST CARCINOGEN TREATMENT FOR THE DURATION STUDY, Strain/Sex: F344/MALE, Target Tissue: Type of Lesion: SMALL INTESTINE: TUMOR, Dose [Carcinogen]: 20 MG/KG BW/WK FOR FIRST 5 WK (STUDY DURATION: 52 WK), Promoter: NONE): 12/23 (52%), 5/20 (25%), 52%, not significant
tumour outcome (control, treated, inhibition, significance) (Carcinogen: 1,2-DIMETHYLHYDRAZINE [540-73-8], Strain/Sex: F344/MALE, Target Tissue: Type of Lesion: COLON: TUMOR, Dose [Carcinogen]: 20 MG/KG FOR FIRST 5 WK (STUDY DURATION: 52 WK), Promoter: NONE): 20/23 (87%), 20/20 (100%), -15%, not significant
tumour outcome (control, treated, inhibition, significance) (Carcinogen: 2-AMINO-1-METHYL-6-PHENYL-1H-IMIDAZO[4,5-B]PYRID INE, 105650-23-5, Dose [Inhibitor]: 0, 1% IN THE DIET FOR 52 WK (STUDY DURATION: 52 WK), Strain/Sex: F344/FEMALE, Target Tissue: Type of Lesion: MAMMARY GLAND: ADENOCARCINOMA, Dose [Carcinogen]: 0.02% IN THE DIET FOR 52 WK, Promoter: NONE USED): 8/20 (40%), 3/20 (15%), 63%, not significant
tumour outcome (control, treated, inhibition, significance) (Carcinogen: 2-AMINO-1-METHYL-6-PHENYL-1H-IMIDAZO[4,5-B]PYRID INE, 105650-23-5, Dose [Inhibitor]: 0, 1% IN THE DIET FOR 52 WK (STUDY DURATION: 52 WK), Strain/Sex: F344/FEMALE, Target Tissue: Type of Lesion: MAMMARY GLAND: FIBROADENOMA, Dose [Carcinogen]: 0.02% IN THE DIET FOR 52 WK, Promoter: NONE USED): 2/20 (10%), 0/20 (0%), 100%, not significant
tumour outcome (control, treated, inhibition, significance) (Carcinogen: 2-AMINO-3-METHYLIMIDAZO[4,5-F]QUINOLINE [76180-96-6], Dose [Inhibitor]: 0, 0.001% (W/V BASED ON TOTAL CHLORINS) IN DRINKING WATER BEGINNING 1 WK POST CARCINOGEN TREATMENT FOR THE DURATION STUD, Strain/Sex: F344/MALE, Target Tissue: Type of Lesion: COLON: TUMOR, Dose [Carcinogen]: 0.03% IN DIET FOR FIRST 5 WK (STUDY DURATION: 52 WK), Promoter: NONE): 2/22 (9%), 2/20 (10%), -11%, not significant
tumour outcome (control, treated, inhibition, significance) (Carcinogen: 2-AMINO-3-METHYLIMIDAZO[4,5-F]QUINOLINE [76180-96-6], Dose [Inhibitor]: 0, 0.001% (W/V BASED ON TOTAL CHLORINS) IN DRINKING WATER BEGINNING 1 WK POST CARCINOGEN TREATMENT FOR THE DURATION STUD, Strain/Sex: F344/MALE, Target Tissue: Type of Lesion: LIVER: TUMOR, Dose [Carcinogen]: 0.03% IN DIET FOR FIRST 5 WK (STUDY DURATION: 52 WK), Promoter: NONE): 16/22 (73%), 12/20 (60%), 18%, not significant
tumour outcome (control, treated, inhibition, significance) (Carcinogen: 2-AMINO-3-METHYLIMIDAZO[4,5-F]QUINOLINE [76180-96-6], Dose [Inhibitor]: 0, 0.001% (W/V BASED ON TOTAL CHLORINS) IN DRINKING WATER BEGINNING 1 WK POST CARCINOGEN TREATMENT FOR THE DURATION STUD, Strain/Sex: F344/MALE, Target Tissue: Type of Lesion: SKIN: TUMOR, Dose [Carcinogen]: 0.03% IN DIET FOR FIRST 5 WK (STUDY DURATION: 52 WK), Promoter: NONE): 7/22 (32%), 5/20 (25%), 22%, not significant
outcome (Carcinogen: 2-AMINO-3-METHYLIMIDAZO[4,5-F]QUINOLINE [76180-96-6], Dose [Inhibitor]: 0, 0.001% (W/V BASED ON TOTAL CHLORINS) IN DRINKING WATER BEGINNING 1 WK POST CARCINOGEN TREATMENT FOR THE DURATION STUD, Strain/Sex: F344/MALE, Target Tissue: Type of Lesion: SMALL INTESTINE: TUMOR, Dose [Carcinogen]: 0.03% IN DIET FOR FIRST 5 WK (STUDY DURATION: 52 WK), Promoter: NONE): 0/22 (0%), 1/20 (5%), -%, not significant
tumour outcome (control, treated, inhibition, significance) (Carcinogen: 2-AMINO-3-METHYLIMIDAZO[4,5-F]QUINOLINE [76180-96-6], Dose [Inhibitor]: 0, 0.001% (W/V BASED ON TOTAL CHLORINS) IN DRINKING WATER BEGINNING 1 WK POST CARCINOGEN TREATMENT FOR THE DURATION STUD, Strain/Sex: F344/MALE, Target Tissue: Type of Lesion: ZYMBAL'S GLAND: TUMOR, Dose [Carcinogen]: 0.03% IN DIET FOR FIRST 5 WK (STUDY DURATION: 52 WK), Promoter: NONE): 5/22 (23%), 3/20 (15%), 35%, not significant
tumour outcome (control, treated, inhibition, significance) (Carcinogen: 2-AMINO-3-METHYLIMIDAZO[4,5-F]QUINOLINE [76180-96-6], Dose [Inhibitor]: 0, 0.01% (W/V BASED ON TOTAL CHLORINS) IN DRINKING WATER BEGINNING 1 WK POST CARCINOGEN TREATMENT FOR THE DURATION STUDY, Strain/Sex: F344/MALE, Target Tissue: Type of Lesion: COLON: TUMOR, Dose [Carcinogen]: 0.03% IN DIET FOR FIRST 5 WK (STUDY DURATION: 52 WK), Promoter: NONE): 2/22 (9%), 2/20 (10%), -11%, not significant
tumour outcome (control, treated, inhibition, significance) (Carcinogen: 2-AMINO-3-METHYLIMIDAZO[4,5-F]QUINOLINE [76180-96-6], Dose [Inhibitor]: 0, 0.01% (W/V BASED ON TOTAL CHLORINS) IN DRINKING WATER BEGINNING 1 WK POST CARCINOGEN TREATMENT FOR THE DURATION STUDY, Strain/Sex: F344/MALE, Target Tissue: Type of Lesion: LIVER: TUMOR, Dose [Carcinogen]: 0.03% IN DIET FOR FIRST 5 WK (STUDY DURATION: 52 WK), Promoter: NONE): 16/22 (73%), 10/20 (50%), 31.5%, not significant
tumour outcome (control, treated, inhibition, significance) (Carcinogen: 2-AMINO-3-METHYLIMIDAZO[4,5-F]QUINOLINE [76180-96-6], Dose [Inhibitor]: 0, 0.01% (W/V BASED ON TOTAL CHLORINS) IN DRINKING WATER BEGINNING 1 WK POST CARCINOGEN TREATMENT FOR THE DURATION STUDY, Strain/Sex: F344/MALE, Target Tissue: Type of Lesion: SKIN: TUMOR, Dose [Carcinogen]: 0.03% IN DIET FOR FIRST 5 WK (STUDY DURATION: 52 WK), Promoter: NONE): 7/22 (32%), 7/20 (35%), -9%, not significant
